ChEMBL document CHEMBL1158714, “Communiols E-H: new polyketide metabolites from the coprophilous fungus Podospora communis” (J Nat Prod, 2005)
The source made the active and inactive calls.

Legend:
Type in all cases: functional, organism-based
Candida albicans = assay: Antimicrobial activity against Candida albicans ATCC 90029 at 200 ug/disk
Staphylococcus aureus = assay: Antimicrobial activity against Staphylococcus aureus ATCC 29213 at 200 ug/disk
Bacillus subtilis = assay: Antimicrobial activity against Bacillus subtilis ATCC 6051 at 200 ug/disk

Measured: Activity

CC[C@@H]1O[C@H]1C[C@H]1CC=C(CO)[C@H]1O
inactive: Candida albicans | Staphylococcus aureus | Bacillus subtilis

CC[C@H](O)[C@@H]1C[C@@H](C/C=C/C=O)C(=O)O1
inactive: Candida albicans | Staphylococcus aureus | Bacillus subtilis

CC[C@H](O)[C@@H]1C[C@H]2CC=C(CO)[C@H]2O1
inactive: Candida albicans | Staphylococcus aureus | Bacillus subtilis

CC[C@H](O)[C@@H]1C[C@H]2CC[C@H](CO)[C@H]2O1
inactive: Candida albicans | Staphylococcus aureus | Bacillus subtilis
